Test results as given in Sander's compilation of Henry's law constants (doi:10.1021/ac00058a023).

Test: Henry solubility constant Hcp at 298.15 K (mol/(m3 Pa))
Details: reference: Li and Carr (1993)

| Henry solubility constant Hcp | SMILES |
| --- | --- |
| 0.00093 | CCCc1ccccc1 [propylbenzene] |
| 0.0076 | Ic1ccccc1 [iodobenzene] |
| 0.0011 | Fc1ccccc1 [fluorobenzene] |
| 1.9 | CCO [ethanol] |
| 0.041 | CCCCCCCC(C)=O [2-nonanone] |
| 0.84 | CCCCCO [1-pentanol] |
| 0.0042 | CC(C)OC(C)C [diisopropyl ether] |
| 0.017 | CCOc1ccccc1 [ethoxybenzene] |
| 0.46 | CC#N [ethanenitrile] |
| 0.0017 | c1ccccc1 [benzene] |
| 0.032 | COc1ccccc1 [methoxybenzene] |
| 1.4 | CCCO [1-propanol] |
| 0.003 | CCCOCCC [dipropyl ether] |
| 0.00091 | CC(C)c1ccccc1 [(2-propyl)-benzene] |
| 0.021 | CCCCCCCC=O [octanal] |
| 0.64 | CCCCCCO [1-hexanol] |
| 0.0013 | CCc1ccccc1 [ethylbenzene] |

| SMILES | Henry solubility constant Hcp |
| --- | --- |
| CC(C)C#N [2-methylpropanenitrile] | 0.094 |
| Brc1ccccc1 [bromobenzene] | 0.0044 |
| Cc1ccc(C)cc1 [1,4-dimethylbenzene] | 0.0013 |
| CCCCC#N [pentanenitrile] | 0.14 |
| Cc1cccc([N+](=O)[O-])c1 [3-nitrotoluene] | 0.28 |
| ClCc1ccccc1 [(chloromethyl)-benzene] | 0.012 |
| Cc1cccc(C)c1 [1,3-dimethylbenzene] | 0.0013 |
| Cc1ccccc1 [methylbenzene] | 0.0016 |
| Cc1ccccc1C [1,2-dimethylbenzene] | 0.0019 |
| ClC(Cl)C(Cl)Cl [1,1,2,2-tetrachloroethane] | 0.029 |
| ClC(Cl)(Cl)Cl [tetrachloromethane] | 0.00023 |
| Cc1cc(C)cc(C)c1 [1,3,5-trimethylbenzene] | 0.0013 |
| Clc1ccccc1 [chlorobenzene] | 0.0025 |
| CCCCc1ccccc1 [butylbenzene] | 0.00071 |
